Reference: the supplement of paper PMC11061612

Columns and labels:
[1] = system: Jurkat (T-Lymphoblastic Leukemia); assay: Bliss excess, mean over the matrix (fraction); higher = more synergy;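 note: after 72 h of two-drug dosing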
Procedure, shortened: (§1)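 Cell lines in DMEM/F12 or RPMI with 10% FBS were plated in 1536-well plates, held 24 hours at 37°C, 5% CO2, then given two-drug dose matrices for 72 hours (DMSO typically 0.2%). Viability was read by CellTiter-Glo 2.0 luminescence and scaled as inhibition from 0 (vehicle wells) to 1 (blank wells). Combination Emax is the second-highest inhibition in the matrix; Bliss excess is observed combination effect minus expected EA + EB − EA·EB, EA and EB being single-agent effects.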

A101D (Melanoma) = assay: combination Emax (second highest fraction inhibited in the dose matrix, 72 h); higher = more inhibition; extreme values may be limits of the assay
Procedure, shortened: as §1

[2] = system: A253 (Head and Neck Carcinoma); assay: as above
Procedure, shortened: as §1

[3] = system: CA46 (Burkitt's Lymphoma); assay: as above
Procedure, shortened: as §1

[4] = system: CAL-27 (Oral Cavity Carcinoma); assay: as above
Procedure, shortened: as §1

[5] = system: CESS (Acute Myeloid Leukemia); assay: as above
Procedure, shortened: as §1

COLO-792 (Melanoma) = assay: as above
Procedure, shortened: as §1

[6] = system: DU-4475 (Breast Carcinoma); assay: as above
Procedure, shortened: as §1

EW-16 (Ewing's Sarcoma) = assay: as above
Procedure, shortened: as §1

[7] = system: G-402 (Other Solid Carcinomas); assay: as above
Procedure, shortened: as §1

[8] = system: GA-10 (Burkitt's Lymphoma); assay: as above
Procedure, shortened: as §1

[9] = system: HT55 (Colorectal Carcinoma); assay: as above
Procedure, shortened: as §1

[10] = system: JIMT-1 (Breast Carcinoma); assay: as above
Procedure, shortened: as §1

[11] = system: JVM-2 (B-Cell Non-Hodgkin's Lymphoma); assay: as above
Procedure, shortened: as §1

NB13 (Neuroblastoma) = assay: as above
Procedure, shortened: as §1

[12] = system: NCI-H2228 (Lung Adenocarcinoma); assay: as above
Procedure, shortened: as §1

[13] = system: NCI-H716 (Colorectal Carcinoma); assay: as above
Procedure, shortened: as §1

[14] = system: TE-10 (Esophageal Squamous Cell Carcinoma); assay: as above
Procedure, shortened: as §1

[15] = system: UACC-812 (Breast Carcinoma); assay: as above
Procedure, shortened: as §1

[16] = system: huH-1 (Hepatocellular Carcinoma); assay: as above
Procedure, shortened: as §1

| SMILES | Bliss excess [1] | combination Emax (A101D (Melanoma)) | combination Emax [2] | combination Emax [3] | combination Emax [4] | combination Emax [5] | combination Emax (COLO-792 (Melanoma)) | combination Emax [6] | combination Emax (EW-16 (Ewing's Sarcoma)) | combination Emax [7] | combination Emax [8] | combination Emax [9] | combination Emax [10] | combination Emax [11] | combination Emax (NB13 (Neuroblastoma)) | combination Emax [12] | combination Emax [13] | combination Emax [14] | combination Emax [15] | combination Emax [16] |
| --- | --- | --- | --- | --- | --- | --- | --- | --- | --- | --- | --- | --- | --- | --- | --- | --- | --- | --- | --- | --- |
| COc1cc2c(cc1OCCCCCOc1cc3c(cc1OC)C(=O)N1C=C(C)C[C@H]1C=N3)N=C[C@@H]1CC(C)=CN1C2=O [SG3199] + O=C(c1cc(Cc2n[nH]c(=O)c3ccccc23)ccc1F)N1CCN(C(=O)C2CC2)CC1 [Olaparib] (first compound max 0.001 µM, 7x7, partner max 10 µM) | 0.0874 | 0.214 | 0.0649 | 0.157 | 0.288 | 0.182 | 0.109 | 0.838 | 0.445 | 0.364 | 0.324 | 0.149 | 0.139 | 0.466 | 0.213 | 0.115 | 0.233 | 0.107 | 0.134 | 0.142 |
| Cc1cc2ncnn2cc1Nc1ncc2c(n1)n(C1CCOCC1)c(=O)n2C [AZD7648] + C=CCn1c(=O)c2cnc(Nc3ccc(N4CCN(C)CC4)cc3)nc2n1-c1cccc(C(C)(C)O)n1 [AZD1775] (first compound max 10 µM, partner max 1 µM) | 0.0183 | 0.762 | 0.415 | 0.693 | 0.345 | 0.919 | 0.558 | 0.88 | 0.448 | 0.543 | 0.988 | 0.341 | 0.721 | 0.899 | 0.91 | 0.561 | 0.487 | 0.86 | 0.209 | 0.746 |
| Cc1cc2ncnn2cc1Nc1ncc2c(n1)n(C1CCOCC1)c(=O)n2C [AZD7648] + C[C@@H]1COCCN1C2=NC(=NC(=C2)C3(CC3)[S@](=N)(=O)C)C4=C5C=CNC5=NC=C4 [AZD6738] (first compound max 10 µM, 7x7, partner max 10 µM) | 0.011 | 0.778 | 0.77 | 0.492 | 0.431 | 0.847 | 0.386 | 0.912 | 0.69 | 0.602 | 0.981 | 0.429 | 0.788 | 0.842 | 0.919 | 0.514 | 0.539 | 0.887 | 0.267 | 0.8 |
| Cc1cc2ncnn2cc1Nc1ncc2c(n1)n(C1CCOCC1)c(=O)n2C [AZD7648] + O=C(c1cc(Cc2n[nH]c(=O)c3ccccc23)ccc1F)N1CCN(C(=O)C2CC2)CC1 [Olaparib] (first compound max 10 µM, 7x7, partner max 10 µM) | 0.108 | 0.261 | 0.17 | 0.221 | 0.347 | 0.37 | 0.347 | 0.565 | 0.47 | 0.41 | 0.569 | 0.129 | 0.252 | 0.624 | 0.263 | 0.353 | 0.258 | 0.233 | 0.177 | 0.198 |
| Cc1cc2ncnn2cc1Nc1ncc2c(n1)n(C1CCOCC1)c(=O)n2C [AZD7648] + CCN(CCO)CCCOc1ccc2c(Nc3cc(CC(=O)Nc4cccc(F)c4)[nH]n3)ncnc2c1 [AZD2811] (first compound max 10 µM, 7x7, partner max 1 µM) | -0.01 | 0.39 | 0.316 | 0.418 | 0.583 | 0.243 | 0.46 | 0.23 | 0.445 | 0.663 | 0.852 | 0.229 | 0.348 | 0.7 | 0.518 | 0.434 | 0.336 | 0.335 | 0.242 | 0.561 |
| CN(CCO)CC[C@H](CSc1ccccc1)Nc1ccc(S(=O)(=O)NC(=O)c2ccc(N3CCC([C@@H](O)c4ccccc4-c4ccc(Cl)cc4)CC3)cc2)cc1S(=O)(=O)C(F)(F)F [AZD4320] + C1CN(CCC1(C(=O)N[C@@H](CCO)C2=CC=C(C=C2)Cl)N)C3=NC=NC4=C3C=CN4 [Capivasertib] (first compound max 1 µM, 7x7, partner max 3 µM) | -0.0203 | 0.429 | 0.499 | 0.251 | 0.191 | 0.69 | 0.78 | 0.883 | 0.461 | 0.327 | 0.586 | 0.292 | 0.2 | 0.702 | 1 | 0.329 | 0.393 | 0.231 | 0.226 | 0.197 |
| CN(CCO)CC[C@H](CSc1ccccc1)Nc1ccc(S(=O)(=O)NC(=O)c2ccc(N3CCC([C@@H](O)c4ccccc4-c4ccc(Cl)cc4)CC3)cc2)cc1S(=O)(=O)C(F)(F)F [AZD4320] + C[C@@H](Nc1cc(F)cc(F)c1)c1cc(C(=O)N(C)C)cc2c(=O)cc(N3CCOCC3)oc12 [AZD8186] (first compound max 1 µM, 7x7, partner max 3 µM) | 0.0576 | 0.781 | 0.437 | 0.196 | 0.659 | 0.935 | 0.939 | 1 | 0.937 | 0.681 | 0.85 | 0.422 | 0.316 | 0.892 | 1 | 0.329 | 0.285 | 0.618 | – | 0.229 |
| Cc1cc2ncnn2cc1Nc1ncc2c(n1)n(C1CCOCC1)c(=O)n2C [AZD7648] + CN(C)CCCOc1ccc(-c2ccc3ncc4c(c3c2)n(C2CCOCC2)c(=O)n4C)cn1 [AZD0156] (first compound max 10 µM, 7x7, partner max 1 µM) | 0.0382 | 0.374 | 0.244 | 0.288 | 0.222 | 0.367 | 0.351 | 0.0619 | 0.192 | 0.51 | 0.446 | 0.169 | 0.348 | 0.622 | 0.303 | 0.407 | 0.251 | 0.292 | 0.288 | 0.3 |
| CN(CCO)CC[C@H](CSc1ccccc1)Nc1ccc(S(=O)(=O)NC(=O)c2ccc(N3CCC([C@@H](O)c4ccccc4-c4ccc(Cl)cc4)CC3)cc2)cc1S(=O)(=O)C(F)(F)F [AZD4320] + Cn1cnc2c(F)c(Nc3ccc(Br)cc3Cl)c(C(=O)NOCCO)cc21 [Selumetinib] (first compound max 1 µM, 7x7, partner max 3 µM) | 0.0229 | 0.781 | 0.523 | 0.19 | 0.661 | 0.95 | 0.913 | 1 | 0.913 | 0.553 | 0.491 | 0.721 | 0.268 | 0.889 | 1 | 0.203 | 0.582 | 0.562 | 0.238 | 0.291 |
| CN(CCO)CC[C@H](CSc1ccccc1)Nc1ccc(S(=O)(=O)NC(=O)c2ccc(N3CCC([C@@H](O)c4ccccc4-c4ccc(Cl)cc4)CC3)cc2)cc1S(=O)(=O)C(F)(F)F [AZD4320] + CCN(CCO)CCCOc1ccc2c(Nc3cc(CC(=O)Nc4cccc(F)c4)[nH]n3)ncnc2c1 [AZD2811] (first compound max 1 µM, 7x7, partner max 1 µM) | 0.0105 | 0.667 | 0.467 | 0.356 | 0.752 | 0.937 | 0.781 | 0.971 | 0.973 | 0.776 | 0.661 | 0.376 | 0.319 | 0.801 | 1 | 0.271 | 0.298 | 0.463 | 0.12 | 0.297 |
| CN(CCO)CC[C@H](CSc1ccccc1)Nc1ccc(S(=O)(=O)NC(=O)c2ccc(N3CCC([C@@H](O)c4ccccc4-c4ccc(Cl)cc4)CC3)cc2)cc1S(=O)(=O)C(F)(F)F [AZD4320] + C[C@@H]1COCCN1C2=NC(=NC(=C2)C3(CC3)[S@](=N)(=O)C)C4=C5C=CNC5=NC=C4 [AZD6738] (first compound max 1 µM, 7x7, partner max 10 µM) | -0.0112 | 0.891 | 0.892 | 0.362 | 0.498 | 0.987 | 0.692 | 1 | 0.932 | 0.84 | 0.979 | 0.707 | 0.871 | 0.908 | 1 | 0.466 | 0.647 | 0.84 | 0.275 | 0.823 |
| CN(CCO)CC[C@H](CSc1ccccc1)Nc1ccc(S(=O)(=O)NC(=O)c2ccc(N3CCC([C@@H](O)c4ccccc4-c4ccc(Cl)cc4)CC3)cc2)cc1S(=O)(=O)C(F)(F)F [AZD4320] + Cc1cc2ncnn2cc1Nc1ncc2c(n1)n(C1CCOCC1)c(=O)n2C [AZD7648] (first compound max 1 µM, 7x7, partner max 10 µM) | 0.0134 | 0.452 | 0.149 | 0.306 | 0.0955 | 0.566 | 0.9 | 0.916 | 0.389 | 0.475 | 0.643 | 0.196 | 0.225 | 0.642 | 1 | 0.296 | 0.209 | 0.202 | 0.15 | 0.127 |
